Data published in patent US20080248030A1, “Method of Treating Angiogenic Diseases” (Children's Medical Center Corporation, priority 2005, published 2008).

How the values were obtained:
human melanoma (A2058) = format: in vivo; conditions: Caplostatin 30 mg/kg s.c. q.o.d; Avastin 1 mg/kg i.p. twice/week
Experimental: Combination treatment was also tested on mice bearing s.c. A2058 human melanoma, PC-3M-LN4 human prostate carcinoma or COLO-205 colon carcinoma or orthotopic intracranial U87-luciferase human glioblastoma.

A2058 human melanoma = test: Antitumor activity on SCID mice bearing s.c. A2058 human melanoma; format: in vivo; conditions: summary in conclusions, tumor models not named
Excerpt: Each group consisted of 5 mice.

VEGFR-2 = conditions: recently shown; cited from earlier work
BCE cells = test: Bovine capillary endothelial (BCE) cell proliferation assay; format: cell-based; conditions: 10 pg/ml to 1 μg/ml TNP-470-equivalent concentration, 72 h
Experimental: For the proliferation assay, cells were washed with PBS and dispersed in a 0.05% trypsin solution. Cells were suspended (15,000 cells/ml) in DMEM supplemented with 10% BCS and 1% GPS, plated onto gelatinized 24-well culture plates (0.5 ml/well), and incubated for 24 h (37° C., 10% CO2). The media was replaced with 0.25 ml of DMEM, 5% BCS and 1% GPS and the test sample applied. Cells were challenged with free or conjugated TNP-470 (10 pg/ml to 1 μg/ml TNP-470-equivalent concentration). After 30 min of incubation, media and bFGF were added to obtain a final volume of 0.5 ml of DMEM, 5% BCS, 1% GPS and 1 ng/ml bFGF. Control cells were grown with or without bFGF. After 72 hr, cells were dispersed in trypsin, resuspended in Hematall (Fisher Scientific, Pittsburgh, Pa.), and counted in a Coulter counter.

[1] = system: liver regeneration post hepatectomy; test: Hepatectomy model (liver regeneration); format: in vivo, C57BL/6J mice
Experimental: Male C57BL/6J mice underwent a partial hepatectomy through a midline incision after general anesthesia with isoflourane^33. Free or conjugated TNP-470 (30 mg/kg) were given s.c. every other day for 8 days beginning on the day of surgery according to the scheme described in FIG. 4a. Alternatively, the doses given were 60 mg/kg the day of surgery and 4 days later or 120 mg/kg once on the day of the partial hepatectomy. The liver was harvested on the 8th day, weighed and analyzed by histology.
This non-neoplastic model is a relatively fast (8 days) in vivo angiogenesis-dependent process^33. We employed the hepatectomy model to compare the endothelial cell inhibitory activity of free and conjugated TNP-470, because liver regeneration post hepatectomy is angiogenesis-dependent, similar to tumor growth^33,34.

chick aortic ring = test: Chick aortic ring endothelial sprouting assay; format: cell-based; conditions: for effect on outgrowth: 100 pg/ml
Experimental: Aortic arches were dissected from day-14 chick embryos, cut into cross-sectional fragments, and implanted in vitro in Matrigel using a modification of methods previously described (V. Muthulckaruppan, personal communication). When cultured in MCDB-131 medium supplemented with 5% fetal bovine serum, endothelial cells sprouted and vascular channel formation occurred within 24-48 hours. Free or conjugated TNP-470 (10 pg/ml to 1 μg/ml) was added to the culture.

[2] = human, in vivo; cited from earlier work
LLC = test: Antitumor activity on C57BL/6J mice bearing s.c. LLC; conditions: 30 mg/kg q.o.d., data not shown
Early mouse development = conditions: injected into 7 and 17 day-old BALB/c mice
Experimental: Free and conjugated TNP-470 were injected into 7 and 17 day-old BALB/c mice in order to test their effects on normal development.

Question: Which TIC (human melanoma (A2058)) does the source give for “Avastin: recombinant humanized antibody to Vascular Endothelial Growth Factor (VEGF), Genentech” here?
Answer: Its TIC is 0.47.

Question: Which results are given for “N-(2-lydroxypropyl)methacrylamide (HPMA) copolymer-TNP-470 conjugate [HPMA copolymer-TNP-470]”?
Answer: T/C values for the conjugate (summary) (A2058 human melanoma): 0.12-0.14; VEGFR-2 phosphorylation (VEGFR-2): inhibit VEGFR-2 phosphorylation; TIC (human melanoma (A2058)): 029; inhibition of bFGF-induced proliferation (cytostatic effect) (BCE cells): inhibited bFGF-induced proliferation; inhibition of liver regeneration ([1]; 60 mg/kg every four days): had an equivalent effect as the 30 mg/kg q.o.d. dosing schedule; inhibition of liver regeneration ([1]; single injection of 120 mg/kg at the day of hepatectomy): had an equivalent effect as the 30 mg/kg q.o.d. dosing schedule; effect on vascular sprouts (chick aortic ring; 50 pg/ml): reduced the number and length of vascular sprouts; effect on outgrowth (chick aortic ring): completely prevented outgrowth

Question: For `COc1cccc2c1C(=O)c1c(O)c3c(c(O)c1C2=O)C[C@@](O)(C(=O)CO)C[C@@H]3O[C@H]1C[C@H](N)[C@H](O)[C@H](C)O1` [doxorubicin], which “t1/2α (in words)” value [2] is on record?
Answer: The value was “few minutes”.

Question: With `CO[C@@H]1[C@H](OC(=O)NC(=O)CCl)CC[C@]2(CO2)[C@H]1[C@@]1(C)O[C@@H]1CC=C(C)C` [TNP-470] as the compound, how does the “induction of weight loss” value (LLC) read?
Answer: Its value is “did”.

Question: And the VEGFR-2 phosphorylation (VEGFR-2)?
Answer: Its VEGFR-2 phosphorylation is “inhibit VEGFR-2 phosphorylation”.

Question: And the “effect on normal development (weight gain)” value (Early mouse development)?
Answer: The value was “inhibited growth, by inhibiting weight gain”.

Question: And the “inhibition of bFGF-induced proliferation (cytostatic effect)” value (BCE cells)?
Answer: The value was “inhibited bFGF-induced proliferation”.

Question: What about the effect on outgrowth (chick aortic ring) of the same compound?
Answer: The effect on outgrowth was “completely prevented outgrowth”.
